Test results taken from patent US7659240B2, “Mucin immobilized chromatography” (Vertex Pharmaceuticals Incorporated, priority 2002, dated 2010).
Where two headings read alike, the source gives them in different places.

Legend:
[1] = system: mucin immobilized to IAM.PC.DD2; assay: HPLC on MIC column (2:1 mucin to PC IAM particles): retention time, k′MIC, derived Km and Peff MIC; conditions: for Peff MIC (×10^−4 cm/s): determined by linear equation
Protocol: [formula] where Dm is the membrane diffusion coefficient of the solute, Km is the membrane equilibrium constant, and L is the membrane thickness (Stein, W., Transport and Diffusion Across Cell Membranes, Academic Press, Orlando, Fla. (1986)). […] Since molecular weight, MW, is proportional to molecular size, Dm may also written as,
[formula] Thus, Dm can be calculated from the molecular weight. Furthermore, Km is calculated by the following equation, Km−(Vm/Vs)k′, [4] where Vm is the volume of the mobile phase, Vs is the internal volume of the stationary phase, and k′ is the partition ratio (Pidgeon and Ong, Chemtech. June, 38-48 (1995)). The partition ratio is determined by the equation, k′−(tr−to)/to, [5] where tr is the retention time of the drug and to is the void volume of the column. Both tr and to can be experimentally determined in order to obtain k′.
Equation 2 can be used to determine Km for a given MIC medium. Both Dm and L are known from the discussion above, and Peff can be calculated for various drugs having known in vivo absorption. For example, a number of drug permeability coefficients, Peff, derived from in vivo experiments are listed in literature. […] See Example 5 below.

[2] = system: Caco-2; conditions: from literature, cited from earlier work
[3] = from literature; cited from earlier work
[4] = cited from earlier work
[5] = single-pass perfusions, cited from earlier work
[6] = system: mucin immobilized to PC IAM particles; assay: pH and mucin layer thickness dependence of partition ratio on MIC columns (1:2 and 2:1)
Protocol: Samples were dissolved in mobile phase solution and filtered (filter pore size, 0.45 μm) prior to injection. […] From this measurement and a measurement of the void volume (t0) the k′MIC could be determined. In addition, from the molecular weight of the compounds, Dm could be determined. These compounds, with the exceptions noted below, were used to generate the column constant (Vm/Vs).
For these reasons, the influence of pH on drug retention times was measured on columns having two different mucin layer thicknesses, 0.32 μm (column prepared with a 1:2 wt % of mucin to PC IAM particles) and 0.36 μm (column prepared with a 2:1 wt % of mucin to PC IAM particles)(Table 8). […] The influence of pH on drug retention time was measured by using different mobile phase buffers adjusted to pH 3, 5 or 7 on either the 0.32 μm or 0.36 μm column.
Capacity factors were calculated from drug retention times collected on columns having two different mucin layer thicknesses, 0.32 μm (column prepared with a 1:2 wt % of mucin to PC IAM particles) and 0.36 μm (column prepared with a 2:1 wt % of mucin to PC IAM particles).

CC(C)(C)NCC(O)c1cc(O)cc(O)c1 (centres unmarked) [Terbutaline]
δ = log k′MIC − log k′IAM [1]: 1.14 | log k′MIC ([1]; MIC 2:1): 1.64 | K′MIC ([1]; MIC 2:1, Table 5): 43 | K′MIC ([1]; MIC 2:1, Table 6): 43.29 | k′MIC ([1]; MIC column 2:1 mucin:IAM, MPS pH 7.4): 43.2857 | Retention Time ([1]; MIC column 2:1 mucin:IAM, MPS pH 7.4, isocratic 0.3 ml/min): 3.1 | Peff MIC (×10^−4 cm/s) ([1]; Table 5): 1.21 ×10^−4 cm/s | Peff MIC (×10^−4 cm/s) ([1]; Table 6): 1.21 ×10^−4 cm/s | Dm ([1]; membrane diffusion coefficient calculated from molecular weight): 0.0036 | Peff Caco-2 (×10^−6 cm/s) ([2]; Table 5): 0.47 ×10^−6 cm/s | Peff Caco-2 (×10^−6 cm/s) ([2]; Table 6): 0.47 ×10^−6 cm/s | log k′IAM [3]: 0.50 | % Absorbed ([4]; Table 5): 60% | % Absorbed ([4]; Table 6): 60% | % Absorbed ([4]; Table 7): 60% | Peff Loc-I-Gut (×10^−4 cm/s) ([5]; Table 5): 0.3 ×10^−4 cm/s | Peff Loc-I-Gut (×10^−4 cm/s) ([5]; Table 6): 0.3 ×10^−4 cm/s | Peff Loc-I-Gut (×10^−4 cm/s) ([5]; Table 9): 0.3 ×10^−4 cm/s | k′MIC (1:2) ([6]; column 1:2, 0.32 μm, pH 7, Table 9): 39 | (1:2) k′ (pH 3) ([6]; column 1:2 mucin to PC IAM, 0.32 μm mucin layer, mobile phase pH 3): 45.67 | (1:2) k′ (pH 5) ([6]; column 1:2 mucin to PC IAM, 0.32 μm mucin layer, mobile phase pH 5): 49.00 | (1:2) k′ (pH 7) ([6]; column 1:2 mucin to PC IAM, 0.32 μm mucin layer, mobile phase pH 7): 39.00 | k′MIC (2:1) ([6]; column 2:1, 0.36 μm, pH 7, Table 9): 35.7 | (2:1) k′ (pH 3) ([6]; column 2:1 mucin to PC IAM, 0.36 μm mucin layer, mobile phase pH 3): 34.71 | (2:1) k′ (pH 5) ([6]; column 2:1 mucin to PC IAM, 0.36 μm mucin layer, mobile phase pH 5): 37.57 | (2:1) k′ (pH 7) ([6]; column 2:1 mucin to PC IAM, 0.36 μm mucin layer, mobile phase pH 7): 35.67
